Tests used:
COS-7 = assay: Gene transfer (GFP expression, luciferase activity) versus commercial agents (Example 5); assay type: cell-based; conditions: COS-7 adherent cells; compared with Lipofectamine LTX and FuGENE HD
Procedure: pEGFP-C1 expressing a green fluorescent protein was used as a gene transfer plasmid; and adherent cells COS-7 and Hela-S3, and non-adherent cells K562, which were established cell lines, were used as target cells. Lipoplexes were individually prepared using DL-U2. Then, gene transfer was performed.
(COS7 cells: 2.0×10^4 cells/well·DMEM+10% FBS (Pe/St) 500 μl)
(i) A 20 mM Tris-HCl (pH 7.4) buffer was dispensed into three tubes at 35.5 μl (for NP ratio=6) for each of two tubes, and 23 μl (for NP ratio=8) for the remaining tube.
(ii) 1.0 μg of plasmid DNA (pCAG-GFP) was added to each of the three tubes prepared in step (i) at 2 μl (1.0 μg), and the contents were stirred.
(iii) A DL-U2 liposome solution was added to the three tubes prepared in step (ii) at 37.5 μl (N/P ratio=6) for each of two tubes, and 50 μl (N/P ratio=8) for the remaining tube.
(iv) 25 μl of an Opti-MEM (registered trademark) I Reduced-Serum Medium was further added, and the whole was thoroughly mixed and allowed to stand at room temperature for 5 minutes.
(v) 100 μl of the DL-plasmid DNA complex solution (N/P ratio=6) was added and mixed with the COS7 cells. […]
(vii) 48 hours later, luciferase activity was measured according to the protocol of the luciferase assay system (Promega, E1501) (relative values based on the activity of LTX defined as 1 were graphed).

HeLa cells = assay: Gene transfer evaluated by luciferase assay (Example 2); assay type: cell-based, human; conditions: lipoplex with 1 μg plasmid DNA, various N/P ratios; FIG. 7 and FIG. 8
Procedure: HeLa cells derived from human cervical cancer were seeded in a 24-well dish at 5.0×10^4 cells per well, and cultured overnight at 37° C. in 0.5 ml of a DMEM medium containing 10% FBS. Then, the cells were washed twice with PBS containing 0.36 mM CaCl2 and 0.42 mM MgCl2 (PBS (+)). Next, 0.5 ml of a DMEM medium containing 10% FBS was added, and the cells were supplemented with a lipoplex (100 μl) containing 1 μg of plasmid DNA per well and incubated at 37° C. for 4 hours. Afterward, the cells were washed three times with PBS (+) to remove the lipoplex not incorporated into the cells. Then, 1 ml of a DMEM medium containing 10% FBS was added, and the cells were cultured at 37° C. for 40 hours.
The cells treated with the lipoplex and cultured for 40 hours were washed twice with PBS (+), and further washed once with PBS (−). […] The luciferase activity and the amount of protein in the resulting cell lysate were determined by luciferase assay and a Coomassie (Bradford) Protein Assay Kit (PIERCE). […] The luminescent substrate solution (20 μl) was mixed with a luminescent substrate liquid (95 μl) including luciferin (13.5 μg) and a 5 mg/ml albumin solution (5 ml), and subjected to measurement for 20 seconds with a Lumat LB9507 luminometer (Berthold Japan Co., Ltd.) for an amount of luminescence.

K562 = assay: Cytotoxic evaluation on gene transfer (Example 5); assay type: cell-based; conditions: compared with Lipofectamine LTX and FuGENE HD
NHDF-ad cells = assay: Toxicity evaluation, WST-8 kit (Example 6); assay type: cell-based, human; conditions: WST-8, 48 hours
Procedure: (NHDF-ad cells: 3.5×10^3 cells/well·DMEM+10% FBS (Pe/St) 70 μl)
(i) A 20 mM Tris-HCl (pH 7.4) buffer was dispensed into two tubes at, individually, 54.25 μl (for DL-G1) and 35.5 μl (for DL-U2).
(ii) 1.0 μg of plasmid DNA (pEGFP-luc+) was added to each of the two tubes prepared in step (i) at 2 μl (1.0 μg), and the contents were stirred.
(iii) To the prepared plasmid DNA solutions was added 37.5 μl of a DL-U2 liposome solution (N/P ratio=6), and the whole was thoroughly mixed using a vortex and incubated at room temperature for 30 minutes.
(iv) 25 μl of an Opti-MEM(R) I Reduced-Serum Medium was further added, and the whole was thoroughly mixed and allowed to stand at room temperature for 5 minutes.
(v) 2.8 and 7.0 μl per well of the DL-plasmid DNA complex solutions was individually added to three wells, and the contents were mixed (the addition amount was one-seventh the addition amount in the luciferase activity measurement).
(vi) The cells were incubated at 37° C. in 5% CO2 for 4 hours, and the growth medium was replaced.
(vii) 48 hours later, toxicity evaluation was performed according to the protocol of a WST-8 kit (Kishida Chemical Co., Ltd.) (a well to which no lipoplex solution was added was defined as 100%). […]

- gene transfer activity (COS-7): excellent gene transfer activity
SMILES: CCCCCCCC/C=C\CCCCCCCCN(CCCCCCCC/C=C\CCCCCCCC)CCC(=O)NCCN(CCC(=O)NCCN)CCC(=O)NCCN (racemic) [DL-G1-U2]
- gene transfer efficiency (luciferase activity) compared with G1 (HeLa cells): two times higher
- cytotoxicity (K562): lower cytotoxicity
- cytotoxicity on GFP gene transfer (NHDF-ad cells): lower than those of most of the commercially available transfer agents

From US8557875B2, “Gene transfer agent composition containing polyamidoamine dendron” (Public University Corporation Osaka Prefecture University, priority 2009, dated 2013)
